Patent US12492422B2, “Ex vivo protease activity detection for disease detection/diagnostic, staging, monitoring and treatment” (Sunbird Bio, Inc., priority 2020, dated 2025)
Square brackets hold non-standard residues; d marks the D form. Primed or numbered codes have the meaning given here. Ends that are not written are not given here. CPQ2″ = quencher on the Lys side chain; FAM = fluorescent reporter; CPQ2(4) = quencher on Lys; PEG2″ = PEG2 spacer; CPQ2 = quencher

Legend:
[1] = test system: cathepsin and/or MMP protease activities; test: Ex vivo probe cleavage in plasma: healthy, NASH regression, NASH progression; assay type: biochemical, mice; settings: K2EDTA plasma at 20 weeks
Source text: Plasma samples were collected from all animals at 20 weeks.
The probes showing the most differentiation in NASH were linked to cathepsin and/or MMP protease activities.

COVID-related proteases [2] = test: Ex vivo probe cleavage in K2EDTA and Lithium Heparin plasma, COVID vs healthy; assay type: biochemical; settings: K2EDTA and LiHeparin plasma cohorts
[3] = test system: proteases cleaving Probe #102 in plasma (cathepsin L); test: Inhibitor profiling of Probe #102 cleavage in NASH and healthy plasma; assay type: biochemical, mice; settings: for effect of inhibitor on Probe #102 signal: NASH or healthy samples
Description: For this experiment, all plasma samples were prepared individually and diluted 1/10e in PBS with inhibitor added directly to the samples. Inhibitor was prepared at 15× concentration to final. Substrates were diluted in DI water at 18 uM, such that the final concentration on the plate would be 6 uM. All samples were prepared such that their last dilution on the plate would not affect the desired final concentration. 10 ul of each individual sample was pipetted into their corresponding wells, and the plate was then spun down in the centrifuge at 1500 RPM for 30 seconds to coat the bottom of each well with the sample. 5 ul of the 18 uM substrate solution was pipetted into each well being used on a 384 well plate, and then the plate was spun down in the centrifuge at 1500 rpm for 30 seconds. The plate was placed immediately in the plate reader at 37° C. for a 30-minute-long fluorescence kinetic read at 485/535 extended gain.
To assess the proteolytic cleavage pattern of Probe #102, samples were tested using a pool of broad inhibitors for serine, cysteine, threonine, MMP and aspartic protease family members (broad inhibitor) to assess general protease activity, AEBSF for serine proteases, E64 for cysteine proteases, CTSi for broad cathepsin inhibition of cathepsins L, S, K and B, or specific inhibitors for cathepsin K (L00625), for cathepsin L (SID) or cathepsin B (CA074).

[4] = test system: carboxylesterase 1, phospholipase A2 and lipoprotein lipase; test: Resorufin oleate substrate with recombinant enzymes spiked in human plasma; assay type: biochemical
caspase activity = test: Ex vivo probe cleavage in plasma of Jo2 fulminant hepatitis model; assay type: biochemical, mouse; settings: plasma 3 hours after Jo2 injection
Description: Fulminant hepatitis is induced after injection intraperitoneal of monoclonal antibody anti-CD95 (Jo2, BD biosciences, 4 ug/animal), and mouse plasma samples were collected 3 hours after Jo2 injection.
The comparison with mass spectrometry data also aligns and confirms high concordance with the ex vivo approach, which is reassuring to confirm the existence of a biologically relevant signal.

furin = furin (Homo sapiens, UniProt P09958); settings: solid-state fluorescence of precipitates after reaction of HPQF with furin; cited from earlier work
Sequence of furin (P09958 108-794, species assumed): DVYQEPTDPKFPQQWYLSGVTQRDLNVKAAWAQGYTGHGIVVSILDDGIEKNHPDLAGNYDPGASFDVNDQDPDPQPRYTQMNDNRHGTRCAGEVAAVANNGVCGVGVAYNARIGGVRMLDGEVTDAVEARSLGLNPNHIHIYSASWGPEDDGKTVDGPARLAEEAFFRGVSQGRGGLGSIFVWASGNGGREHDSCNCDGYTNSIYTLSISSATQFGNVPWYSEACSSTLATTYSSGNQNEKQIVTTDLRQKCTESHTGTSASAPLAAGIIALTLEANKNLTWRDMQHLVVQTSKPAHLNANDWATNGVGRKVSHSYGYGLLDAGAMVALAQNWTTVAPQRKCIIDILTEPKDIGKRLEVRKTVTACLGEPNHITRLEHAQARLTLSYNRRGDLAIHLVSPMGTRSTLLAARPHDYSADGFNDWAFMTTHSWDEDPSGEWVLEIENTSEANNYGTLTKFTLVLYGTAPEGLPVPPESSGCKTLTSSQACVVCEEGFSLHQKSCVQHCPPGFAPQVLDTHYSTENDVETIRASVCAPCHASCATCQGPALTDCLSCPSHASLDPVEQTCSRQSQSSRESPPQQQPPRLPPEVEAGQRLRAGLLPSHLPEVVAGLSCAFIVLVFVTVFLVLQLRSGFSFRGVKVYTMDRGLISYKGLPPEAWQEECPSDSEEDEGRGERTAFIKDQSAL

COVID-related proteases [5] = test: Ex vivo probe cleavage in COVID positive and negative swab samples; assay type: biochemical
Granzyme B = molecular target: T1, Granzyme B (Homo sapiens, UniProt P10144); test: Inhibition experiments on Probe #647 signal in swabs (Granzyme B, caspases); assay type: biochemical; settings: healthy vs COVID samples
T1 construct: from tissue; host or cells: swab samples
T1 sequence (P10144 21-247): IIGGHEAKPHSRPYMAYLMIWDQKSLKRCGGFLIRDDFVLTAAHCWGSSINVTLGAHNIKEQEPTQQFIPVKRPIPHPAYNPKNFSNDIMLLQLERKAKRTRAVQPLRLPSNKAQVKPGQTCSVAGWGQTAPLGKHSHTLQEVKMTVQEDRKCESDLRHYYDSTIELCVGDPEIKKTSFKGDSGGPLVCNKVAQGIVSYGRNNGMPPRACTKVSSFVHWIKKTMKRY

Q: With “Probe #520: probe of Table 1 (GKPISLISSGK; not fully specified; 5FAM, CPQ2 quencher, PEG2-GC; MOD_RES (11)..(11) Lys modified with a CPQ2 quencher)” as the compound, how does the “differentiation among healthy, regression and NASH samples” value (from here on “differentiation among healthy”) [1] read?
A: Its value is “can differentiate”.

Q: Which “differential cleavage between COVID and healthy samples” value (COVID-related proteases [2]) does the source give for “Probe #18: Neutrophil elastase substrate (GAAPVGK(CPQ2); also: 5-FAM, position not given here, PEG2, position not given here)” here?
A: The value was “demonstrated contrast in both sets”.

Q: For CCCNC(=O)[C@H]1O[C@@H]1C(=O)N[C@H](C(=O)N1CCC[C@H]1C(=O)O)[C@@H](C)CC [CA074], which “effect of inhibitor on Probe #102 signal” value [3] is on record?
A: Its value is “did not significantly decrease signal”.

Q: For CCCC(=O)O [butyrate], which “suitability as substrate for enzyme detection” value [4] is on record?
A: Its value is “promising for detection of broad range of enzymes”.

Q: Which “suitability as substrate for enzyme detection” value [4] does the source give for Resorufin oleate here?
A: The value was “promising for detection of broad range of enzymes”.

Q: Which “differentiation among healthy” value [1] does the source give for “Probe #96: probe of Table 1 ({FAM}-GRPLALWESQGK(CPQ2(4))[PEG2″][dK]GC; not fully specified; printed as (FAM)-GRPLALWESQG-K(CPQ2)-PEG2-k-GC; also: FAM, place not given here, D-Lys-GC, place not given here)” here?
A: Its value is “can differentiate”.

Q: For “Probe #8: Caspase centric probe (GVDVADGK; not fully specified; 5-FAM, CPQ2 quencher, PEG2, D-Lys-D-Lys-GC; MOD_RES (8)..(8) Lys modified with a CPQ2 quencher)”, which “contrast in Jo2 hepatitis model” value (caspase activity) is on record?
A: Its value is “show contrast that is specific and sensitive to the Jo2 model”.

Q: Which “differentiation among healthy” value [1] does the source give for “Probe #492: probe of Table 1; differentiates NASH in mouse plasma ({FAM}-GQRANSIRVTWGK(CPQ2(4))[PEG2″][dK][dK]GC; not fully specified; printed as (FAM)-GQRANSIRVTWG-K(CPQ2)-(PEG2)-DLys-DLys-GC; also: FAM, place not given here, D-Lys-D-Lys-GC, place not given here)” here?
A: Its value is “can differentiate”.

Q: Which “contrast in Jo2 hepatitis model” value (caspase activity) does the source give for “Probe #12: Caspase centric probe (GDEVDGK; not fully specified; 5-FAM, CPQ2 quencher, PEG2, D-Lys-D-Lys-GC; MOD_RES (7)..(7) Lys modified with a CPQ2 quencher)” here?
A: The value was “show contrast that is specific and sensitive to the Jo2 model”.

Q: Which fluorescence enhancement (furin) does the source give for O=c1[nH]c(-c2cc(Cl)ccc2O)nc2ccc(Cl)cc12 [Cl-HPQ] here?
A: Its fluorescence enhancement is “more than 60 fold”.

Q: With “Probe #647: Caspase centric probe; signal measures Granzyme B activity (GAIEPDSGGK(CPQ2); also: 5FAM, position not given here, PEG2, position not given here, D-Lys-D-Lys-GC-NH2, position not given here)” as the compound, how does the “contrast in Jo2 hepatitis model” value (caspase activity) read?
A: The value was “show contrast that is specific and sensitive to the Jo2 model”.

Q: And the “active samples among COVID+” value (COVID-related proteases [5]; adjusted RFU across timepoints)?
A: The value was 7 samples.

Q: And the “active samples among COVID−” value (COVID-related proteases [5]; adjusted RFU across timepoints)?
A: Its value is 1 sample.

Q: And the “differentiation between COVID+ and COVID− samples” value (COVID-related proteases [5]; swab samples in saline)?
A: Its value is “key differentiator”.

Q: And the “differentiation among healthy” value [1]?
A: Its value is “can differentiate”.

Q: What about the “protease measured by probe signal” value (Granzyme B) of the same compound?
A: The value was “measures the activity of protease Granzyme B”.

Q: Which “differential cleavage between COVID and healthy samples” value (COVID-related proteases [2]) does the source give for “Probe #84: Furin substrate (GRVKRGLAGK(CPQ2); also: 5-FAM, position not given here, PEG2, position not given here)” here?
A: Its value is “demonstrated contrast in both sets”.

Q: With CC(C)C[C@H](NC(=O)[C@H]1O[C@@H]1C(=O)O)C(=O)NCCCCN=C(N)N [Probe E64] as the compound, how does the “effect of inhibitor on Probe #102 signal” value [3] read?
A: The value was “decreased NASH signal significantly”.

Q: Which results are given for “Probe #102: a CTSL sensing probe; fluorescent reporter and quencher ({FAM}-GKPILFFRLKGK(CPQ2″)[PEG2″][dK][dK]GC; also: fluorescent reporter and quencher, places not given here)”?
A: protease whose activity the probe responds to ([3]; individual cathepsin inhibitors, FIG. 30D-F): specifically responds to the activity of cathepsin L (CTSL); differentiation among healthy, regression and NASH samples [1]: can differentiate

Q: Which “decrease of RFU signal in NASH samples” value ([3]; Probe #102 6 uM, NASH plasma diluted in PBS, 30-minute kinetic read at 37° C.) does the source give for NCCc1ccc(S(=O)(=O)F)cc1 [AEBSF] here?
A: Its value is 65%.

Q: What about the “decrease of RFU signal in healthy samples” value ([3]; Probe #102 6 uM, healthy plasma diluted in PBS, 30-minute kinetic read at 37° C.) of the same compound?
A: The value was 60%.

Q: With “Probe #409: the SARS CoV2 coronavirus substrate (GTSAVLQSGFRKGK(CPQ2); also: 5-FAM, position not given here, PEG2, position not given here)” as the compound, how does the “differential cleavage between COVID and healthy samples” value (COVID-related proteases [2]) read?
A: Its value is “modest contrast in the K2 EDTA samples”.

Q: With “Probe #462: MMP8 substrate (GKKAKRNALGK(CPQ2); also: FAM, position not given here, PEG2, position not given here)” as the compound, how does the “differential cleavage between COVID and healthy samples” value (COVID-related proteases [2]) read?
A: The value was “demonstrated contrast in both sets”.

Q: Which “effect of inhibitor on Probe #102 signal” value [3] does the source give for CN1CCN(c2nc(-c3ccc(C(=O)NC4(C(=O)NCC#N)CCCCC4)cc3)cs2)CC1 [Probe L006235] here?
A: The value was “did not significantly decrease signal”.

Q: With “Probe #428: probe of Table 1 ({FAM}-GDRRKKLTQGK(CPQ2(4))[PEG2″][dK][dK]GC; not fully specified; printed as (FAM)-GDRRKKLTQG-K(CPQ2)-(PEG2)-DLys-DLys-GC; also: FAM, place not given here, D-Lys-D-Lys-GC, place not given here)” as the compound, how does the “differentiation among healthy” value [1] read?
A: The value was “can differentiate”.
